DBAASP
Converted amounts (≈) assume the structure as drawn.

Assays:
Assay in all cases: ≥ marks a high value that may be exact or a test limit, other limits are often not marked, values filed in µg/mL are converted to µM
[1] = tested on: Staphylococcus aureus NCTC 10788
[2] = tested on: Escherichia coli NCTC 10418
[3] = tested on: Candida albicans NCPF 1467
[4] = tested on: Staphylococcus aureus ATCC 25923
[5] = tested on: Salmonella enterica subsp. enterica serovar Typhimurium ATCC 14028s
Listeria monocytogenes = tested on: Listeria monocytogenes
Escherichia coli UB1005 = tested on: Escherichia coli UB1005
[6] = tested on: Enterococcus faecalis ATCC 29212
[7] = tested on: Staphylococcus epidermidis
[8] = tested on: Pseudomonas aeruginosa K799
[9] = tested on: Pseudomonas aeruginosa ATCC 10145
[10] = tested on: Candida albicans ATCC 10231
[11] = tested on: Escherichia coli ATCC 2592
[12] = tested on: Staphylococcus aureus ATCC 33591
[13] = tested on: Cryptococcus neoformans ATCC 32045
[14] = tested on: Klebsiella pneumoniae ATCC 700603
[15] = tested on: Escherichia coli ATCC 25922
[16] = tested on: Pseudomonas aeruginosa ATCC 27853
[17] = tested on: Escherichia coli BW25113 ΔsbmA
Escherichia coli BW25113 = tested on: Escherichia coli BW25113
[18] = tested on: Acinetobacter baumannii ATCC 19606
[19] = tested on: Salmonella enterica subsp. enterica serovar Typhimurium ATCC 14028
[20] = tested on: Salmonella typhimurium SL1344
Escherichia coli JJ2489 = tested on: Escherichia coli JJ2489
Escherichia coli JW0013 = tested on: Escherichia coli JW0013
[21] = tested on: Salmonella enterica subsp. enterica serovar Enteritidis MH91989
[22] = tested on: Escherichia coli JW2778 ΔygdD
Escherichia coli MC1041 = tested on: Escherichia coli MC1041
[23] = tested on: Escherichia coli JW0368 ΔsbmA
Escherichia coli J2210 = tested on: Escherichia coli J2210

For `CC[C@H](C)[C@H](NC(=O)[C@H](C)NC(=O)[C@H](Cc1cnc[nH]1)NC(=O)[C@@H]1CCCN1C(=O)[C@@H](NC(=O)[C@H](CC(C)C)NC(=O)[C@H](CO)NC(=O)[C@H](Cc1ccccc1)NC(=O)[C@H](CC(C)C)NC(=O)[C@@H](N)Cc1ccccc1)[C@@H](C)CC)C(=O)N[C@@H](CO)C(=O)NCC(=O)N[C@@H](CC(C)C)C(=O)N[C@H](C(=O)N[C@@H](CO)C(=O)N[C@@H](C)C(=O)N[C@@H](Cc1ccccc1)C(=O)N[C@H](C=O)CCCCN)[C@@H](C)CC` [FLFSLIPHAISGLISAFK], the MIC [1] was 8 µM (≈ 15.6 µg/mL), the MIC [2] was ≥ 250 µM and the MIC [3] was 16 µM (≈ 31.1 µg/mL).

Compound `CC[C@H](C)[C@H](NC(=O)[C@H](C)NC(=O)[C@@H]1CCCN1C(=O)[C@H](CC(C)C)NC(=O)[C@@H](N)Cc1ccccc1)C(=O)N[C@@H](C)C(=O)NCC(=O)N[C@@H](CC(C)C)C(=O)N[C@@H](C)C(=O)N[C@@H](C)C(=O)N[C@@H](CCCCN)C(=O)N[C@@H](Cc1ccccc1)C(=O)N[C@@H](CC(C)C)C(=O)N1CCC[C@H]1C(=O)N[C@@H](CCCCN)C(=O)N[C@H](C(=O)N[C@@H](Cc1ccccc1)C(=O)N[C@H]1CSSC[C@@H](C(=O)O)NC(=O)[C@H](CCCCN)NC(=O)[C@H](CCCCN)NC(=O)[C@H]([C@@H](C)O)NC(=O)[C@H]([C@@H](C)CC)NC(=O)[C@H](C)NC1=O)[C@@H](C)CC` [FLPAIAGLAAKFLPKIFCAITKKC] has an MIC [1] of 3.12 µM (≈ 8 µg/mL), an MIC [2] of 12.5 µM (≈ 32 µg/mL) and an MIC [3] of 3.12 µM (≈ 8 µg/mL).

`CC[C@H](C)[C@@H]1NC(=O)[C@H](C(C)C)NC(=O)[C@H](C(C)C)NC(=O)[C@H]([C@@H](C)CC)NC(=O)[C@@H]2CCCN2C(=O)[C@@H](NC(=O)[C@H](CCCCN)NC(=O)[C@@H](N)CCCCN)CSSC[C@@H](C(=O)N[C@@H](CCCCN)C(=O)O)NC(=O)[C@H](C(C)C)NC(=O)[C@H](CCCN=C(N)N)NC1=O` [KKCPIVVIRVCK] was tested, and the MIC [4] was > 46.2 µM, the MIC [5] was 23.1 µM (≈ 32 µg/mL) and the MIC (Listeria monocytogenes) was 11.5 µM (≈ 16 µg/mL). For the same compound, the MIC (Escherichia coli UB1005) was 11.5 µM (≈ 16 µg/mL), the MIC [6] was > 46.2 µM and the MIC [7] was ≥ 46.2 µM. For the same compound, the MIC [8] was ≥ 46.2 µM.

`CC(C)C[C@H](NC(=O)[C@H](CCCCN)NC(=O)[C@H](CCCCN)NC(=O)[C@H](CC(C)C)NC(=O)[C@H](CC(C)C)NC(=O)[C@H](CCCCN)NC(=O)[C@H](CCCCN)NC(=O)[C@H](CC(C)C)NC(=O)[C@H](CC(C)C)NC(=O)[C@H](CCCCN)NC(=O)[C@H](CCCCN)NC(=O)[C@H](CC(C)C)NC(=O)[C@H](CC(C)C)NC(=O)[C@H](CCCCN)NC(=O)[C@H](CCCCN)NC(=O)[C@H](CC(C)C)NC(=O)[C@H](CC(C)C)NC(=O)[C@H](CCCCN)NC(=O)[C@H](CCCCN)NC(=O)[C@H](CC(C)C)NC(=O)[C@H](CC(C)C)NC(=O)[C@H](CCCCN)NC(=O)[C@H](CCCCN)NC(=O)[C@@H](N)CC(C)C)C(=O)O` [LKKLLKKLLKKLLKKLLKKLLKKL] showed an MIC [9] of 22.3 µM (≈ 65 µg/mL), an MIC [10] of 121 µM (≈ 354 µg/mL) and an MIC [11] of 30.2 µM (≈ 88 µg/mL). For the same compound, the MIC [12] was ≥ 85.8 µM and the MIC [13] was ≥ 42.9 µM.

With `CC(C)C[C@H](NC(=O)[C@H](CCCCN)NC(=O)[C@H](CC(C)C)NC(=O)[C@H](CCCCN)NC(=O)[C@H](CC(C)C)NC(=O)[C@H](CCCCN)NC(=O)[C@H](CC(C)C)NC(=O)[C@H](CCCCN)NC(=O)[C@H](CC(C)C)NC(=O)[C@H](CCCCN)NC(=O)[C@H](CC(C)C)NC(=O)[C@H](CCCCN)NC(=O)[C@H](CC(C)C)NC(=O)[C@H](CCCCN)NC(=O)[C@H](CC(C)C)NC(=O)[C@H](CCCCN)NC(=O)[C@H](CC(C)C)NC(=O)[C@H](CCCCN)NC(=O)[C@H](CC(C)C)NC(=O)[C@H](CCCCN)NC(=O)[C@@H](N)CC(C)C)C(=O)N[C@@H](CCCCN)C(=O)O` [LKLKLKLKLKLKLKLKLKLKLK] the MIC [9] was 23.2 µM (≈ 62 µg/mL), the MIC [10] was 132 µM (≈ 354 µg/mL) and the MIC [11] was ≥ 46.8 µM. For the same compound, the MIC [12] was ≥ 93.5 µM and the MIC [13] was 16.7 µM (≈ 44.5 µg/mL).

In the case of `CC[C@H](C)[C@H](NC(=O)[C@@H]1CCCN1)C(=O)N[C@@H](CCCN=C(N)N)C(=O)N[C@@H](CCCN=C(N)N)C(=O)N1CCC[C@H]1C(=O)N1CCC[C@H]1C(=O)N[C@H](C(=O)N[C@@H](CCCN=C(N)N)C(=O)N1CCC[C@H]1C(=O)N1CCC[C@H]1C(=O)N[C@@H](Cc1ccccc1)C(=O)N[C@@H](Cc1ccc(O)cc1)C(=O)N1CCC[C@H]1C(=O)N1CCC[C@H]1C(=O)N[C@@H](Cc1ccccc1)C(=O)N[C@@H](CCCN=C(N)N)C(=O)N1CCC[C@H]1C(=O)N1CCC[C@H]1C(=O)N[C@H](C(=O)N[C@@H](CCCN=C(N)N)C(=O)N1CCC[C@H]1C(=O)O)[C@@H](C)CC)[C@@H](C)CC` [PIRRPPIRPPFYPPFRPPIRP], the MIC [14] is reported as > 64 µM, the MIC [15] is reported as > 64 µM and the MIC [4] is reported as > 64 µM. The MIC [16] was > 64 µM, the MIC [17] was ≥ 64 µM and the MIC (Escherichia coli BW25113) was ≥ 64 µM. The MIC [18] was > 64 µM and the MIC [19] was > 64 µM.

With `CC[C@H](C)[C@H](NC(=O)[C@@H]1CCCN1C(=O)[C@@H]1CCCN1C(=O)[C@H](CCCN=C(N)N)NC(=O)[C@H](Cc1ccccc1)NC(=O)[C@@H](N)CCCN=C(N)N)C(=O)N[C@@H](CCCN=C(N)N)C(=O)N[C@@H](CCCN=C(N)N)C(=O)N1CCC[C@H]1C(=O)N1CCC[C@H]1C(=O)N[C@H](C(=O)N[C@@H](CCCN=C(N)N)C(=O)N1CCC[C@H]1C(=O)N1CCC[C@H]1C(=O)N[C@@H](Cc1ccccc1)C(=O)O)[C@@H](C)CC` [RFRPPIRRPPIRPPF] the MIC [14] was > 64 µM, the MIC [15] was 64 µM (≈ 122 µg/mL) and the MIC [4] was > 64 µM. For the same compound, the MIC [16] was > 64 µM, the MIC [17] was ≥ 64 µM and the MIC (Escherichia coli BW25113) was ≥ 64 µM. The MIC [18] was > 64 µM and the MIC [19] was > 64 µM.

`CC[C@H](C)[C@H](NC(=O)[C@H](CCCN=C(N)N)NC(=O)[C@@H](N)CCCN=C(N)N)C(=O)N[C@@H](CCCCN)C(=O)N[C@@H](CCCCN)C(=O)N[C@@H](CCCN=C(N)N)C(=O)N1CCC[C@H]1C(=O)N1CCC[C@H]1C(=O)N[C@@H](CCCN=C(N)N)C(=O)N[C@@H](CC(C)C)C(=O)N1CCC[C@H]1C(=O)N[C@@H](CCCN=C(N)N)C(=O)N1CCC[C@H]1C(=O)N[C@@H](CCCN=C(N)N)C(=O)N1CCC[C@H]1C(=O)N[C@@H](CCCN=C(N)N)C(=O)O` [RRIKKRPPRLPRPRPR] gave an MIC [20] of 0.12 µM (≈ 0.25 µg/mL), an MIC (Escherichia coli JJ2489) of 0.12 µM (≈ 0.25 µg/mL) and an MIC (Escherichia coli JW0013) of 0.06 µM (≈ 0.125 µg/mL). The MIC [21] was 0.12 µM (≈ 0.25 µg/mL), the MIC [22] was 0.12 µM (≈ 0.25 µg/mL) and the MIC (Escherichia coli BW25113) was 0.078 µM (≈ 0.162 µg/mL). The MIC (Escherichia coli MC1041) was 0.06 µM (≈ 0.125 µg/mL), the MIC [23] was 0.06 µM (≈ 0.125 µg/mL) and the MIC (Escherichia coli J2210) was 0.157 µM (≈ 0.326 µg/mL).

Work on `CC[C@H](C)[C@H](NC(=O)[C@H](CCCN=C(N)N)NC(=O)[C@@H](N)CCCN=C(N)N)C(=O)N[C@@H](CCCCN)C(=O)N1CCC[C@H]1C(=O)N[C@@H](CCCN=C(N)N)C(=O)N1CCC[C@H]1C(=O)N1CCC[C@H]1C(=O)N[C@@H](CCCN=C(N)N)C(=O)N[C@@H](CC(C)C)C(=O)N1CCC[C@H]1C(=O)N[C@@H](CCCN=C(N)N)C(=O)N1CCC[C@H]1C(=O)N[C@@H](CCCN=C(N)N)C(=O)N1CCC[C@H]1C(=O)N[C@@H](CCCCN)C(=O)O` [RRIKPRPPRLPRPRPK] yielded an MIC [20] of 0.12 µM (≈ 0.242 µg/mL), an MIC (Escherichia coli JJ2489) of 0.12 µM (≈ 0.242 µg/mL) and an MIC (Escherichia coli JW0013) of 0.06 µM (≈ 0.121 µg/mL). For the same compound, the MIC [21] was 0.157 µM (≈ 0.317 µg/mL), the MIC [22] was 0.12 µM (≈ 0.242 µg/mL) and the MIC (Escherichia coli BW25113) was 0.06 µM (≈ 0.121 µg/mL). For the same compound, the MIC (Escherichia coli MC1041) was 0.06 µM (≈ 0.121 µg/mL), the MIC [23] was 0.06 µM (≈ 0.121 µg/mL) and the MIC (Escherichia coli J2210) was 0.12 µM (≈ 0.242 µg/mL).
